From PubChem BioAssay (NCI)
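Compound exposure: 48 hours, 5 concentrations, 96-well plates. TGI: concentration producing complete growth inhibition.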 Where a SMILES comes first, the peptide text is derived from it. The star is where a group is joined. Boc = CC(C)(C)OC(=O)*

Key:
Assay in all cases: NCI tumour cell line growth inhibition, 48 h
[1] = system: HCT-15 colon
[2] = system: SNB-19 CNS
[3] = system: HCC-2998 colon
[4] = system: M19-MEL melanoma
[5] = system: EKVX NSCLC
[6] = system: SF-268 CNS
[7] = system: RPMI-8226 leukemia
[8] = system: RXF-631 renal
[9] = system: UO-31 renal
[10] = system: SN12C renal
[11] = system: OVCAR-5 ovarian
[12] = system: IGROV1 ovarian
[13] = system: OVCAR-4 ovarian
[14] = system: XF 498 CNS
[15] = system: KM12 colon
[16] = system: LOX IMVI melanoma
[17] = system: SNB-75 CNS
[18] = system: A549 NSCLC
[19] = system: HOP-62 NSCLC
[20] = system: U251 CNS
[21] = system: SK-OV-3 ovarian
[22] = system: MALME-3M melanoma
[23] = system: CAKI-1 renal
[24] = system: OVCAR-3 ovarian
[25] = system: HL-60(TB) leukemia
[26] = system: UACC-257 melanoma
[27] = system: SF-295 CNS
[28] = system: NCI-H522 lung
[29] = system: HOP-18 NSCLC
[30] = system: RXF 393 renal
[31] = system: KM20L2 colon
[32] = system: SK-MEL-28 melanoma
[33] = system: SK-MEL-2 melanoma
[34] = system: K-562 leukemia
[35] = system: HT29 colon
[36] = system: NCI-H226 lung
[37] = system: A498 renal
[38] = system: DMS 114 small cell lung
[39] = system: M14 melanoma
[40] = system: ACHN renal
[41] = system: TK-10 renal
[42] = system: SF-539 CNS
[43] = system: NCI-H460 lung
[44] = system: COLO 205 colon
[45] = system: DLD-1 colon
[46] = system: OVCAR-8 ovarian
[47] = system: LXFL 529 NSCLC
[48] = system: DMS 273 small cell lung
[49] = system: UACC-62 melanoma
[50] = system: SK-MEL-5 melanoma
[51] = system: MOLT-4 leukemia
[52] = system: NCI-H23 lung
[53] = system: SW-620 colon
[54] = system: CCRF-CEM leukemia
[55] = system: 786-0 renal
[56] = system: SNB-78 CNS
[57] = system: HOP-92 NSCLC
[58] = system: SR leukemia
[59] = system: HCT-116 colon

CCO/C(CCn1[nH]c(=O)c(Cl)c(Cl)c1=O)=N\NC(=O)C(=O)NN
TGI [1]: > 100 µM
TGI [2]: > 100 µM
TGI [3]: > 100 µM
TGI [4]: > 100 µM
TGI [5]: > 100 µM
TGI [6]: > 100 µM
TGI [7]: > 100 µM
TGI [8]: > 100 µM
TGI [9]: > 100 µM
TGI [10]: > 100 µM
TGI [11]: > 100 µM
TGI [12]: > 100 µM
TGI [13]: > 100 µM
TGI [14]: > 100 µM
TGI [15]: > 100 µM
TGI [16]: > 100 µM
TGI [17]: > 100 µM
TGI [18]: > 100 µM
TGI [19]: > 100 µM
TGI [20]: > 100 µM
TGI [21]: > 100 µM
TGI [22]: > 100 µM
TGI [23]: > 100 µM
TGI [24]: > 100 µM
TGI [25]: > 100 µM
TGI [26]: > 100 µM
TGI [27]: > 100 µM
TGI [28]: > 100 µM
TGI [29]: > 100 µM
TGI [30]: > 100 µM
TGI [31]: > 100 µM
TGI [32]: > 100 µM
TGI [33]: > 100 µM
TGI [34]: > 100 µM
TGI [35]: > 100 µM
TGI [36]: > 100 µM
TGI [37]: > 100 µM
TGI [38]: > 100 µM
TGI [39]: > 100 µM
TGI [40]: > 100 µM
TGI [41]: > 100 µM
TGI [42]: > 100 µM
TGI [43]: > 100 µM
TGI [44]: > 100 µM
TGI [45]: > 100 µM
TGI [46]: > 100 µM
TGI [47]: > 100 µM
TGI [48]: > 100 µM
TGI [49]: > 100 µM
TGI [50]: > 100 µM
TGI [51]: > 100 µM
TGI [52]: > 100 µM
TGI [53]: > 100 µM
TGI [54]: > 100 µM
TGI [55]: > 100 µM

CSCCC(NC(=O)C(CC(C)C)NC(=O)C1CCCN1C(=O)C(Cc1ccccc1)NC(=O)C(Cc1ccccc1)NC(=O)C(CCC(=O)O)NC(=O)OC(C)(C)C)C(N)=O (configuration not stated) (Boc-EFFPLM-NH2; configuration not given here)
TGI [3]: > 100 µM
TGI [4]: > 100 µM
TGI [6]: > 100 µM
TGI [56]: > 100 µM
TGI [7]: > 100 µM
TGI [8]: > 100 µM
TGI [9]: > 100 µM
TGI [10]: > 100 µM
TGI [12]: > 100 µM
TGI [13]: > 100 µM
TGI [14]: > 100 µM
TGI [16]: > 100 µM
TGI [17]: > 100 µM
TGI [19]: > 100 µM
TGI [21]: > 100 µM
TGI [22]: > 100 µM
TGI [23]: > 100 µM
TGI [25]: > 100 µM
TGI [28]: > 100 µM
TGI [32]: > 100 µM
TGI [33]: > 100 µM
TGI [34]: > 100 µM
TGI [36]: > 100 µM
TGI [37]: > 100 µM
TGI [57]: > 100 µM
TGI [38]: > 100 µM
TGI [39]: > 100 µM
TGI [42]: > 100 µM
TGI [43]: > 100 µM
TGI [44]: > 100 µM
TGI [45]: > 100 µM
TGI [47]: > 100 µM
TGI [48]: > 100 µM
TGI [49]: > 100 µM
TGI [58]: > 100 µM
TGI [51]: > 100 µM
TGI [52]: > 100 µM
TGI [59]: > 100 µM
TGI [54]: > 100 µM
TGI [55]: > 100 µM

CC(C)(CN1CCOCC1)C(=O)/C=C/c1ccc(/C=C/C(=O)C(C)(C)CN2CCOCC2)cc1
TGI [1]: 4.03 µM
TGI [3]: 3.26 µM
TGI [5]: 4.12 µM
TGI [56]: 3.07 µM
TGI [7]: 7.63 µM
TGI [8]: 3.13 µM
TGI [9]: 3.15 µM
TGI [10]: 3.57 µM
TGI [11]: 3.26 µM
TGI [12]: 4.47 µM
TGI [13]: 2.4 µM
TGI [14]: 2.84 µM
TGI [15]: 2.92 µM
TGI [16]: 1.54 µM
TGI [17]: 4.44 µM
TGI [18]: 7.42 µM
TGI [19]: 4.79 µM
TGI [20]: 2.63 µM
TGI [21]: 39.8 µM
TGI [23]: 3.78 µM
TGI [24]: 2.46 µM
TGI [25]: 3.92 µM
TGI [27]: 4.63 µM
TGI [28]: 0.928 µM
TGI [30]: 3.45 µM
TGI [31]: 2.89 µM
TGI [35]: 1.88 µM
TGI [36]: 5.22 µM
TGI [37]: 3.6 µM
TGI [57]: 6.49 µM
TGI [38]: 2.16 µM
TGI [40]: 4.92 µM
TGI [41]: 3.62 µM
TGI [42]: 3.69 µM
TGI [43]: 19.4 µM
TGI [44]: 3.01 µM
TGI [45]: 1.19 µM
TGI [46]: 7.52 µM
TGI [47]: 2.59 µM
TGI [48]: 1.87 µM
TGI [49]: 2.98 µM
TGI [50]: 3.23 µM
TGI [51]: 0.694 µM
TGI [59]: 1.62 µM
TGI [54]: 4.77 µM
TGI [55]: 4.11 µM

O=c1nc(NC(c2ccccc2)(c2ccccc2)c2ccccc2)ccn1CCCl
TGI [1]: > 100 µM
TGI [2]: 28.9 µM
TGI [3]: 28 µM
TGI [4]: 40.5 µM
TGI [5]: 61 µM
TGI [6]: 34.1 µM
TGI [56]: 86.7 µM
TGI [7]: 55.7 µM
TGI [8]: 97.4 µM
TGI [9]: > 100 µM
TGI [10]: 33 µM
TGI [11]: 82.4 µM
TGI [12]: 48.1 µM
TGI [13]: 53.1 µM
TGI [14]: 27.1 µM
TGI [15]: 31.2 µM
TGI [16]: 31.8 µM
TGI [17]: 41.8 µM
TGI [18]: > 100 µM
TGI [19]: 40.9 µM
TGI [20]: 28.7 µM
TGI [22]: 29.2 µM
TGI [24]: 27.6 µM
TGI [25]: 54.9 µM
TGI [27]: 42.9 µM
TGI [28]: 41.4 µM
TGI [29]: 72.1 µM
TGI [30]: 30.8 µM
TGI [31]: 33 µM
TGI [32]: 28.6 µM
TGI [33]: 29.9 µM
TGI [34]: 63.3 µM
TGI [35]: 35 µM
TGI [36]: 42.8 µM
TGI [37]: > 100 µM
TGI [57]: 27.6 µM
TGI [38]: 37.9 µM
TGI [40]: 99 µM
TGI [41]: 56.2 µM
TGI [42]: 31.7 µM
TGI [43]: 36.4 µM
TGI [44]: 64.7 µM
TGI [45]: > 100 µM
TGI [46]: 29.7 µM
TGI [47]: 26.4 µM
TGI [58]: 49.5 µM
TGI [51]: 42.3 µM
TGI [52]: 56 µM
TGI [59]: 37.1 µM
TGI [53]: 48.6 µM
TGI [55]: 32 µM
